Reference: US9884863B2, “STAT3 inhibitor” (Board of Regents, The University of Texas System, priority 2013, dated 2018)

What was measured:
MCF-7 = assay: MTS cell proliferation assay, MCF-7; format: cell-based, human; settings: Homo sapiens, MCF7, 72 h, read-out: IC50 MCF-7 (Table 4)
Summary of the method: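 MCF-7 human breast cancer cells were exposed to test compounds at a range of concentrations, then proliferation was measured with the MTS reagent from Promega's CellTiter 96 AQueous Non-Radioactive Cell Proliferation Assay kit. After 1 hr at 37° C., OD at 550 nm was read on a 96-well iMark Microplate Absorbance Reader, with quadruplicate wells per concentration.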

MDA-MB-231 = assay: MTS cell proliferation assay, MDA-MB-231; format: cell-based, human; settings: Homo sapiens, MDA-MB-231, 72 h, read-out: IC50 MDA-MB-231 (Table 4)
Summary of the method: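 Cells are exposed to DMSO or STAT3 inhibitors at 0.01-100 μM for 72 h, or at 1, 5 and 10 μM. Proliferation is read by MTS absorbance at 550 or 560 nm after 1 h at 37 °C. Each concentration is run in quadruplicate wells.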

[1] = tested on: STAT3 promoter activity in MDA-MB-231 cells; assay: Transient transfection and dual luciferase reporter assay (pSTAT3-Luc); format: cell-based, human; settings: 24 h
Experimental: MDA-MB-231 cells were pre-treated with niclosamide or 11 at different concentrations for 24 h. The STAT3 promoter activity in MDA-MB-231 cells was determined after transient transfecting with pSTAT3-Luc vector.
Transient Transfection and Dual Luciferase Reporter Assays. MBA-MB-231 cells were seeded in 24-well plate at a density of 5×10^4 cells/well in RPMI-1640 medium containing 10% FBS and 1% penicillin-streptomycin. Transient transfections were performed 4 h after plating, using the method described previously (Rees, D. C. et al., 2004; Shen, Q. et al., 2008). Total amount of DNA for transfections was 0.5 μg/well, including pSTAT3-Luc (95%, obtained from Panomics, Cat# LR0077) and internal control vector renilla (5%, from Promega, Madison, Wis., USA). 5 h after transfection, the cells were treated with compound […] for 24 h, then reporter activity was evaluated using dual luciferase reporter assay kit (Promega, Madison, Wis., USA) on an Omega™ Microplate Luminometer (BMG LABTECH Inc., NC, USA). Relative luciferase units were the ratio of the absolute activity of firefly luciferase to that of renilla luciferase. Experiments were conducted with triplicates and results are representatives of at least 3 independent experiments.

[2] = format: in vivo; settings: oral gavage 14 days; HJC0152 25 mg/kg, niclosamide 75 mg/kg
Experimental: Female nude mice at 4 to 6 wk of age were obtained from MDACC ERO facility. The mice were maintained in a barrier unit with 12 hours light-dark switch room and all materials were autoclaved. Freshly harvested MDA-MB-231 cells (2.5×10^6 cells per mouse, resuspended in 100 μl PBS) were injected into the 3rd mammary fat pad of the mice, and then mice were randomly assigned into control and treatment groups (≧6 mice per group). Treatment started when the xenograft mammary tumors reaches a volume of 200 mm^3. […] Mice were monitored daily for general health conditions (body weight, fur coat condition and posture) and toxicity (hair loss, skin rash, abdominal distension). […] Tumor volume was calculated as V=W^2×L/2, where L=longer diameter (mm) and W=width of short diameter (mm). […]
Female nude mice were obtained from MDACC and were used for orthotopic tumor studies at 4 to 6 weeks of age. […] Body weights and tumors volume were measured daily and tumor volume was calculated according to the formula V=0.5×L×W^2, where L=length (mm) and W=width (mm).
Twenty-two female nude mice (8 wks of age) were obtained from MDACC ERC Center. […] Body weights and tumors volume were measured daily and tumor volume calculated using the formula V=0.5×L×W^2, where L=length (mm) and W=width (mm) of xenograft tumors. Signs of toxicity were recorded individually. […]

[3] = tested on: STAT3 and pSTAT3 in MDA-MB-231 xenograft tumors; assay: IHC and Western blot of xenograft tumors; format: in vivo, mice; settings: oral gavage 14 days
Text: Immunohistochemistry (IHC): Paraffin blocks of the collected tissue were sectioned into 4 μm thickness and stained with H&E as a reference. All slides were subjected to phospho-STAT3 (Y705) IHC with ABC staining method. Rabbit or mouse IgG ABC kit was purchased from Vector Laboratories (Burlingame, Calif., USA) and ABC staining reagents were purchased from Sigma Aldrich (Louis, Mo., USA). PBS was used instead of primary antibody as a negative control.

## O=C(Nc1ccc([N+](=O)[O-])cc1Cl)c1cc(Cl)ccc1O [niclosamide, reference compound]
MCF-7
  IC50: 1060 nM
MDA-MB-231
  IC50: 790 nM
[1]
  STAT3 promoter activity at 20 μM, in words: suppressed
[2]
  toxicity signs in treated mice: No toxicity signs
[3]
  STAT3 and pSTAT3 (Y705 and S727) in tumor lysates, Western blot: decreased
